Source: ChEMBL document CHEMBL1759957, “Synthesis and antibacterial evaluation of novel 8-fluoro Norfloxacin derivatives as potential probes for methicillin and vancomycin-resistant Staphylococcus aureus” (2011)
Converted amounts (≈) assume the structure as drawn.

What was measured:
Experiment in all cases: microbe, parasite or virus in culture
Assay type in all cases: functional
Staphylococcus aureus [1] = conditions: ATCC 29213, 24 h
Description: Antibacterial activity against methicillin- resistant and vancomycin resistant Staphylococcus aureus ATCC 29213 after 24 hrs by spectrophotometry

Klebsiella pneumoniae = conditions: ATCC 27736, 24 h
Description: Antibacterial activity against Klebsiella pneumoniae ATCC 27736 after 24 hrs by spectrophotometry

Staphylococcus aureus [2] = conditions: ATCC 25923, 24 h
Description: Antibacterial activity against methicillin- resistant Staphylococcus aureus ATCC 25923 after 24 hrs by spectrophotometry

Row | SMILES | MIC (Staphylococcus aureus [1]) | MIC (Klebsiella pneumoniae) | MIC (Staphylococcus aureus [2])
1 | CCn1cc(C(=O)O)c(=O)c2cc(F)c(N3CCN(c4nc(NCCN5CCOCC5)nc(NCCN5CCOCC5)n4)CC3)c(F)c21 | 1.56 µg/mL (≈ 2.32 µM) | 0.78 µg/mL (≈ 1.16 µM) | 0.78 µg/mL (≈ 1.16 µM)
2 | CCCNc1nc(C)cc(N2CCN(c3c(F)cc4c(=O)c(C(=O)O)cn(CC)c4c3F)CC2)n1 | 0.39 µg/mL (≈ 0.802 µM) | 0.09 µg/mL (≈ 0.185 µM) | 0.39 µg/mL (≈ 0.802 µM)
